Values of other authors as cited in publication PMC5152921, “Evolutionary and Functional Diversification of the Vitamin D Receptor-Lithocholic Acid Partnership” (PLoS ONE, 2016).

System: all eight VDRs tested
Set-up: method as in PMID 25279795, PMID 25855982
Settings: transient transactivation assays; cited from earlier work

For `C=C1/C(=C\C=C2/CCC[C@]3(C)[C@@H]([C@H](C)CCCC(C)(C)O)CC[C@@H]23)C[C@@H](O)C[C@@H]1O` [1,25D3, 1α,25-dihydroxyvitamin D3], which VDR transactivation is on record?
Its VDR transactivation is “activates all eight VDRs tested”.
